What was measured:
Details in all cases: 72 h
U2OS [1] = test: drug sensitivity score (DSS) for viability; higher = more toxic; extreme values may be limits of the assay
Caco-2 [2] = test: as above
HepG2 [3] = test: as above
Calu-3 [4] = test: as above
Vero E6 [5] = test: as above
U2OS [6] = test: cell viability relative to DMSO; higher = less toxic
Caco-2 [7] = test: as above
HepG2 [8] = test: as above
Calu-3 [9] = test: as above
Vero E6 [10] = test: as above
U2OS [11] = test: relative viability EC50 (midpoint between 100% and the lowest measured viability); higher = less toxic
Caco-2 [12] = test: as above
Calu-3 [13] = test: as above
Vero E6 [14] = test: as above
HepG2 [15] = test: as above

Row | SMILES | drug sensitivity score (U2OS [1]) | drug sensitivity score (Caco-2 [2]) | drug sensitivity score (HepG2 [3]) | drug sensitivity score (Calu-3 [4]) | drug sensitivity score (Vero E6 [5]) | cell viability (U2OS [6]; 1 nM) [%] | cell viability (U2OS [6]; 10 nM) [%] | cell viability (U2OS [6]; 100 nM) [%] | cell viability (U2OS [6]; 1000 nM) [%] | cell viability (U2OS [6]; 10000 nM) [%] | cell viability (Caco-2 [7]; 1 nM) [%] | cell viability (Caco-2 [7]; 10 nM) [%] | cell viability (Caco-2 [7]; 100 nM) [%] | cell viability (Caco-2 [7]; 1000 nM) [%] | cell viability (Caco-2 [7]; 10000 nM) [%] | cell viability (HepG2 [8]; 1 nM) [%] | cell viability (HepG2 [8]; 10 nM) [%] | cell viability (HepG2 [8]; 100 nM) [%] | cell viability (HepG2 [8]; 1000 nM) [%] | cell viability (HepG2 [8]; 10000 nM) [%] | cell viability (Calu-3 [9]; 1 nM) [%] | cell viability (Calu-3 [9]; 10 nM) [%] | cell viability (Calu-3 [9]; 100 nM) [%] | cell viability (Calu-3 [9]; 1000 nM) [%] | cell viability (Calu-3 [9]; 10000 nM) [%] | cell viability (Vero E6 [10]; 1 nM) [%] | cell viability (Vero E6 [10]; 10 nM) [%] | cell viability (Vero E6 [10]; 100 nM) [%] | cell viability (Vero E6 [10]; 1000 nM) [%] | cell viability (Vero E6 [10]; 10000 nM) [%] | relative viability EC50 (U2OS [11]) [µM] | relative viability EC50 (Caco-2 [12]) [µM] | relative viability EC50 (Calu-3 [13]) [µM] | relative viability EC50 (Vero E6 [14]) [µM] | relative viability EC50 (HepG2 [15]) [µM]
1 | N#C/C(=C\c1ccc(O)c(O)c1)C(=O)NCc1ccccc1 [AG-490] | 0 | 0.7 | 2.4 | 0 | 0.2 | 94.1 | 99.8 | 95.8 | 103 | 95.5 | 95.9 | 98.7 | 92.5 | 92.2 | 82.1 | 96.4 | 101 | 99.9 | 95 | 66.6 | 96.7 | 103 | 92.8 | 96.7 | 91.6 | 94.1 | 98.2 | 98.7 | 94.7 | 86.6 | > 10 | > 10 | > 10 | > 10 | –
2 | O=C(Nc1cccc(Br)c1)c1cccc(S(=O)(=O)N2CCCCCC2)c1 [AK-7] | 0 | 1.4 | 0.9 | 0.6 | 0 | 97.7 | 92.8 | 98.5 | 92.8 | 86.3 | 90.6 | 94.9 | 93.5 | 92.9 | 75.1 | 96.7 | 103 | 99.9 | 104 | 72.9 | 102 | 94 | 106 | 105 | 77 | 98.7 | 102 | 99.4 | 100 | 94.3 | > 10 | > 10 | > 10 | > 10 | –
3 | COc1ccnc2[nH]cc(C(=O)C(=O)N3CCN(C(=O)c4ccccc4)C[C@H]3C)c12 [BMS-806] | 0 | 0 | – | 0 | 0 | 93.3 | 104 | 95.1 | 105 | 100 | 99.3 | 99 | 96.1 | 108 | 107 | – | – | – | – | – | 105 | 108 | 107 | 110 | 99.3 | 107 | 102 | 102 | 105 | 99.9 | > 10 | > 10 | > 10 | > 10 | –
4 | O=S(=O)(NCCNC/C=C/c1ccc(Br)cc1)c1cccc2cnccc12 [H-89] | 0 | 0 | 0.8 | 0 | 0.7 | 101 | 96 | 102 | 97.2 | 90.7 | 99.9 | 103 | 98.7 | 99.9 | 89.6 | 95.5 | 96.4 | 91.9 | 102 | 74.7 | 79.7 | 100 | 87.6 | 103 | 118 | 96.8 | 97.6 | 100 | 97 | 82.9 | > 10 | > 10 | > 10 | > 10 | –
5 | O=C(O)COc1ccc(OCCNC[C@H](O)COc2ccccc2)cc1 [ICI-215,001] | – | 0 | 0 | – | 0 | – | – | – | – | – | 98.1 | 111 | 103 | 103 | 116 | 106 | 104 | 104 | 104 | 97.1 | – | – | – | – | – | 106 | 97.5 | 101 | 104 | 92.6 | – | > 10 | – | > 10 | > 10
6 | CCOCOC[C@H](C[C@H](C)C(=O)NO)NC(=O)c1ccc(Oc2ccccc2)cc1 [ONO-4817] | 0 | 0 | – | 0 | 0 | 98.1 | 103 | 97.1 | 104 | 92.6 | 104 | 104 | 100 | 103 | 87.6 | – | – | – | – | – | 92.3 | 85.3 | 97.6 | 95.4 | 89.2 | 103 | 102 | 103 | 101 | 91.5 | > 10 | > 10 | > 10 | > 10 | –
7 | CC(C)C[C@H](CN)CC(=O)O [PREGABALIN] | 0 | 0.3 | 0 | – | 0 | 94.5 | 102 | 98.9 | 98.2 | 98.2 | 128 | 122 | 95 | 104 | 82.6 | 105 | 87.3 | 106 | 103 | 98.9 | – | – | – | – | – | 93.5 | 105 | 106 | 103 | 100 | > 10 | > 10 | – | > 10 | > 10
